The results in this text go back to US7642047B2, “Method of screening cell death modulators” (priority 2003, dated 2010).

The test system of test [1] is NGF-deprived sympathetic neurons. The experiment in a line: Survival assay of NGF-deprived sympathetic neurons. The format is cell-based, rat. Also on record: protection of NGF-deprived neurons (FIG. 5B legend): dose or concentration left out as unconfirmed. As for the experimental part:
(§1) Briefly, the neurons of postnatal day-1-2 Han/Wi strain rats were grown six days in vitro on polyornithine -laminin-coated dishes or glass coverslips with 100 ng/ml of human GDNF (PeproTech) or 30 ng/ml of 2.5 S mouse NGF (Promega). […] To reduce the number of nonneuronal cells, 1 μM cytosine arabinoside (Sigma-Aldrich) was always included next day after plating, but was not added to factor-deprived neurons. To deprive GDNF, the cultures were washed gently three times with GDNF-free culture medium. To remove NGF, the cultures were washed once with NGF-free medium and function-blocking anti-NGF antibodies (Roche) were added. The compounds of interest were added and initial neurons were counted immediately after neurotrophic factor deprivation. Living neurons were counted daily by a “blind” experimenter not aware of the identity of experimental groups. The following compounds were assayed: broad-range caspase inhibitor boc-aspartyl(OMe) -fluoromethylketone. […] When the compounds were dissolved in DMSO, the same amount of DMSO was always added to the control cultures.
(§2) In all studies described below, the neurons from newborn rat SCG were maintained in sister dishes with GDNF (100 ng/ml) or NGF (30 ng/ml) for six DIV, then deprived of these factors for 48 or 72 hours, and analysed. NGF- and GDNF-responsive neurons were always analysed in parallel and received identical treatment.

Test [2] deals with GDNF-deprived sympathetic neurons. Description: Survival assay of GDNF-deprived sympathetic neurons. The format is cell-based, rat. Details: protection of GDNF-deprived neurons (FIG. 5B legend): dose or concentration left out as unconfirmed. How it is done:
as §1, §2

Test [3] has as its system newborn rat sympathetic neurons from the superior cervical ganglion. The experiment in a line: Survival of newly isolated sympathetic neurons maintained with neurotrophic factor. The format is cell-based. As for the experimental part:
FIGS. 1A, 1B, and 1C. […] (1A) Newly isolated neurons were grown with GDNF (100 ng/ml), NGF (30 ng/ml) or without neurotrophic factors for eight days. The living neurons were counted daily and expressed as percent of initial neurons, counted two hours after plating. The mean±standard error of the mean of three independent cultures is shown for each data point. (1B) Newly isolated neurons were maintained with different doses of GDNF for six days. The living neurons were counted daily and expressed as percent of initial neurons, counted two hours after plating. For comparison, survival with NGF (30 ng/ml) is also shown. […] Living neurons were counted daily and expressed as percent of initial neurons counted immediately after factor deprivation. […]
Briefly, the neurons of postnatal day-1-2 Han/Wi strain rats were grown six days in vitro on polyornithine -laminin-coated dishes or glass coverslips with 100 ng/ml of human GDNF (PeproTech) or 30 ng/ml of 2.5 S mouse NGF (Promega). […] The compounds of interest were added and initial neurons were counted immediately after neurotrophic factor deprivation. Living neurons were counted daily by a “blind” experimenter not aware of the identity of experimental groups. […]
In similar conditions, about 98% of the NGF-maintained neurons had survived (FIG. 1 A). […] NGF- and GDNF-responsive neurons were always analysed in parallel and received identical treatment. […]

Where [4] appears, read: BAF at 50 μM, living neurons counted 72 h after deprivation.
The mark [5] stands for this setting: living neurons counted 72 h after treatment and deprivation.

Regarding `COC(=O)CC(NC(=O)OC(C)(C)C)C(=O)CF` (stereo not drawn) [BAF, boc-aspartyl(OMe)-fluoromethylketone], in test [1] (setting [4]), the “effect on death of NGF-deprived neurons” value was “almost completely blocked death”. The “protection of NGF-deprived neurons (FIG. 5B legend)” value in test [1] (setting [5]) is recorded as “protects”. In addition, the “effect on death of GDNF-deprived neurons” value in test [2] (setting [4]) was “almost completely blocked death”. The “protection of GDNF-deprived neurons (FIG. 5B legend)” value in test [2] (setting [5]) is “protects”.

B1: GDNF: human GDNF (PeproTech), glial cell line-derived neurotrophic factor (protein, UniProt P39905 78-211, looked up)
Glial cell line-derived …: SPDKQMAVLPRRERNRQAAAANPENSRGKGRRGQRGKNRGCVLTAIHLNVTDLGLGYETKEELIFRYCSGSCDAAETTYDKILKNLSRNRRLVSDKVGQACCRPIAFDDDLSFLDDNLVYHILRKHSAKRCGCI
As for B1, the “initially plated neurons survived” value in test [3] (by sixth day in vitro, GDNF 100 ng/ml or NGF 30 ng/ml, percent of initial neurons counted two hours after plating) is “about 34%”. Also, in test [3] (dose-dependence study, neurons maintained six days), the “saturating concentration for SCG neurons” value was found to be 100 ng/mL.
